Experimental data: patent US20230126411A1, “DEUTERIUM MAGNETIC RESONANCE IMAGING” (University of Florida Research Foundation, Inc., priority 2020, published 2023)

Columns and labels:
[1] = T1 inversion recovery NMR of lactate isotopomers, HDO and standards in cell media; format: physicochemical; settings: 25° C., cell medium; for deuterium T1 relaxation time: 2H-NMR 92.13 MHz; for proton T1 relaxation time: 1H-NMR 600.23 MHz, 2H-decoupling on
Method: (§1) All NMR spectra were recorded on a 600.23 MHz NMR, equipped with a 1.7 mm TCI CryoProbe and Avance Neo Console (Bruker Biospin). All NMR experiments were set up in the lock off followed by sweep off mode. ^2H-decoupling off and on ^1H-NMR spectra were acquired with a sequence that alternated decoupling with each scan. Relaxation delay (d1) of 1.5s and acquisition time (AQ) of 2s (3.5s of recycling time, Tr) and a 90° pulse of 10.50 μs was used for acquisition of each of the spectra. The WET method containing selective pulses was applied on the strong water resonance (M o, H. & Raftery, D. J. Biomol. NMR 2008 41:105-111). Waltz16 ^2H-decoupling sequence consists of 90° pulse of 250 μs with decoupling power of 1.72watts, producing B, of 1 kHz during the acquisition period. 13,157 complex data points were acquired with the spectral width of 11 ppm. 128 scans were used to acquire each spectrum. 4 dummy scans were also used for equilibration of the spin states prior to acquisition. A modified T1 inversion recovery pulse sequence with ^2H-decoupling on during the acquisition was used to measure the T1 of the lactate isotopomers and pyrazine standard. Relaxation delay (d1) of 50s and inversion recovery delays (T) of 0.001, 0.6, 0.9, 1.5, 2.0, 3.0, 6.0, 9.0, 14.0, 20.0, 30.0 and 40.0s were used to determine the T1 of lactate isotopomers.
(§2) The deuterium lock channel was used to acquire the ^1H-decoupled ^2H-NMR spectrum at 92.13 MHz resonant frequency. Relaxation delay (d1) of 2s and acquisition time (AQ) of 1s (3s of recycling time, Tr) with a 90° pulse was used to acquire each of the ^2H-NMR spectra. 1086 complex data points were digitized with the spectral width of 11 ppm using 1024 scans for each of the 5 FIDs (5120 scans) for each of the samples. T1 inversion recovery pulse sequence was used to calculate the T1 relaxation times of HDO and pyrazine-D4 standard. Relaxation delay (d1) of 5s, acquisition time (AQ) of 1s and inversion recovery delays (T) of 0.001, 0.1, 0.4, 0.8, 1.6, and 3.2s were used to acquire an array of FIDs to calculate the T1 of HDO and pyrazine-D4. All NMR experiments were carried out at the room temperature (25° C.). ^1H-NMR Data Processing and Quantification of Lactate Isotopomers
Once the lactate isotopomers were identified, it would be expected to observe differential changes in T1 due to a loss of ^1H dipolar relaxation. T1 inversion recovery experiments were performed in the ^2H-decoupling on mode to calculate the T1 relaxation time of the pyrazine and lactate isotopomers. […] A and B marks on the uppermost spectrum represent the pyrazine standard and methyl signals of the lactate isotopomers respectively. Integral areas of each of the lactate isotopomers and pyrazine standard were extracted to calculate the T1 relaxation times. Data was fit to the standard T1 equation, Mz(t)=M0(1-2*^T/T1), to extract the T1s. […] T1 relaxation time of the HDO and pyrazine-D4 standard were calculated using the inversion recovery ^2H-NMR data (FIG. 10) and found to be 0.49s and 0.45s respectively.

[2] = tested on: rat brain; test: Deuterium MR spectroscopy of rat brain and plasma 2H NMR after tail vein infusion of [2H7]glucose
Text: All experimental procedures were approved by the University of Florida Institutional Animal Care and Use Committee. Female Sprague Dawley rats (body weight: ˜220 g) were purchased from Jackson Laboratories and acclimatized in the University's animal care facilities. All rats were in the fed state. The rat was anesthetized with 2% isoflurane in a mixture of O2 and N2 gases. The tail vein was catheterized using a 23-gauge needle for the infusion of [^2H7]glucose tracer. The body temperature of the rat was maintained at 37° C. using a heated circulating water pad. The respiratory rate was monitored during the entire period of the experiment. After shimming the magnet, three baseline ^2H spectra were acquired. Subsequently, a 2 minute tail vain infusion of [^2H7]glucose (1.95 g/kg body weight and dissolved in 2.3 mL saline) was administered. Blood was drawn after the end of spectroscopy and imaging experiments via saphenous vein and blood plasma was separated by centrifugation of the blood at 4° C. for 10 minutes. Circulating blood glucose was assessed by a blood draw and glucometer (Evancare, Medline Industries, Northfield, IL) prior to infusion and 3 hours after the glucose injection.
Animal experiments were performed on an 11.1 T Magnex magnet (Magnex Scientific Ltd.) interfaced to a BrukerAvance Ill HD console running on ParaVision 6.0.1 (Bruker Instruments, Billerica, Mass.). The MRI system was equipped with RRI BFG-240/120-S6 gradient coil with the bore size of 120 mm and capable of producing 100 mT/m with 200 μs rise time. A shim map was generated for localized shimming on rat brain using an 85 mm home-built, actively-decoupled, linear volume ^1H transmit-receive coil. The coil was tuned to the ^1H NMR frequency at 470 MHz. A home-built 14 mm diameter, circular surface coil tuned to 72.26 MHz was used to acquire ^2H spectra and images.
The ^2H coil was placed over the rat head and a 3D printed phantom containing approximately 200 μl of natural abundance water was placed on the top of the coil to confirm positioning. The ^2H RF pulse and flip angle were optimized to maximize the ^2H signals from the rat brain. A partial signal contribution from the natural abundance ^2H of the water phantom was unavoidable but was accounted for by subtraction of the signal areas from runs that followed the glucose injection. […] Spectra were acquired with a 1 kHz width and 256 data points for each free induction decay (FID), a repetition time of 300 ms, and a flip angle of 60° with 256 averages. The total acquisition time for each spectrum was 1.28 minutes. A total of 30 spectra were acquired for a 38-minute time period. Two additional ^2H NMR spectra from the rat brain were acquired at 2 hours and 2.5 hours following [^2H7]glucose infusion. Pyrazine-D4 (2.5 mM, internal standard) was added in each plasma sample to calculate the HDO concentration in plasma. ^2H NMR spectra were collected on Bruker 14 T NMR magnet system equipped with a 1.7 mm TCl CryoProbe and Avance Neo console (Bruker BioSpin). ^2H NMR spectra of plasma samples were acquired at 92.13 MHz resonant frequency with an acquisition time of 1.0 s, relaxation delay of 2 s, and 3072 scans.
^2H NMR data analysis was performed using MestReNova v14.0.1-23284 (Mestrelab Research S. L., Santiago, Spain). For processing of the ^2H NMR, each spectrum was Fourier transformed with an exponential window function of 2.0 Hz, zero-filling of 512 data points and automatic phase correction was also applied. Peak areas were extracted for HDO, [^2H7]glucose including the anomeric signal, deuterated glx (glutamate/glutamine) and lactate from the ^2H NMR spectra of the rat brain. 2D ^1H and ^2H images were processed in the ImageJ software (NIH, Bethesda, Md.).

[3] = tested on: AML12 cells; test: [2H7]glucose consumption, lactate isotopomer and HDO production in cell media by 1H/2H-NMR; format: cell-based; settings: for concentration of consumed [2H7]glucose / produced lactate isotopomers and HDO in cell media: 5.5 mM [2H7]glucose; for number of μmol of 2H: 2H mass balance
Method: (§3) HUH-7 or AML12 cell lines were cultured in a complete growth medium made up of Dulbecco's Modified Eagle Medium (DMEM) with 10% v/v FBS, 10,000 units/mL penicillin, 10,000 μg/mL streptomycin, 25 μg/mL amphotericin B and 5.5 mM [^2H7]glucose. Cell lines were maintained at 37° C. in a 5% CO2 in air atmosphere in an air-jacketed incubator (Heracell Vios 160i, Thermo Scientific, Waltham, Mass.). Growth media was replaced every 3 days, and subcultured 1:5 at 80% confluence. 25 cm^2 cell culture plates, containing 15 million HUH-7 or AML12 cells at 70-80% confluence, were washed once with warm PBS and incubated with 4 mL each of DMEM with deuterated tracer for 5h, withdrawing 100 μL aliquots at 20 min, 1h, 2h, and 5h.
(§4) No extraction was performed on the cell media samples. Pyrazine and pyrazine-D4 were mixed to achieve 5 mM concentration of each of the standards in each cell media samples of HUH-7 and AML12 cells. Pyrazine and pyrazine-D4 served as an internal standard to quantify the lactate isotopomers from ^1H-NMR data and HDO as well as residual [^2H7]glucose from ^2H-NMR data respectively. 40 μL of cell medium was transferred into 1.7 mm NMR tubes for NMR analysis. ^1H-NMR Spectroscopy
as §1, §2
(§5) For processing of the ^1H-NMR spectrum, the spectra were zero-filled to 32,768 points with an exponential window function of 0.3 Hz before the Fourier Transform (FT). Manual phase and automatic spline baseline correction were performed on each of the spectra. ^2H-decoupled ^1H-NMR spectra of each time point were used for the extraction of the areas of lactate isotopomers. The MestReNova line fitting tool was used to extract the peak areas of the slightly overlapped signals for quantification of the lactate isotopomers. […]

[4] = tested on: HUH-7 hepatocellular carcinoma cells; test: as above; format: cell-based; settings: for concentration of consumed [2H7]glucose / produced lactate isotopomers and HDO in cell media: 5.5 mM [2H7]glucose; for number of μmol of 2H: 2H mass balance; for rate of production of lactate isotopomer: efflux into medium, linear regression over incubation time
Method: as §3, §4, §1, §2, §5

Compound | concentration of consumed [2H7]glucose / produced lactate isotopomers and HDO in cell media ([3]; 5 hour time point) | number of μmol of 2H ([3]; 5 hour time point) | concentration of consumed [2H7]glucose / produced lactate isotopomers and HDO in cell media ([4]; 5 hour time point) | number of μmol of 2H ([4]; 5 hour time point) | proton T1 relaxation time [1] | rate of production of lactate isotopomer [4] | also measured
[2H]O [HDO, hydrogen-deuterium oxide] | 2003.12 µmol/L | 2003.12 µmol | 18240.0 µmol/L | 18240.0 µmol |  |  | deuterium T1 relaxation time [1]: 0.49 s; final body water HDO enrichment ([2]; rat blood plasma at end of experiment, n=4): 86.9 ± 5.16 mM; final estimated HDO concentration in brain ([2]; rat brain, longer time points (2.5 hrs) post-[2H7]glucose infusion, N=3): approximately 48±10 mM; final HDO signal relative to natural abundance signal ([2]; rat brain, longer time points post-infusion): approximately 3.5 ×; time range of pseudo-steady state of HDO (and HDO plus lactate) to glx ratios ([2]; rat brain, post-[2H7]glucose infusion): 10 to 24 min; body water enrichment of HDO relative to brain concentration ([2]; rat, final time point): approximately 1.8 ×
[2H]CC(O)C(=O)O (stereo not drawn) [Lactate-CH2D] | 229.26 µmol/L | 229.26 µmol | 1520.0 µmol/L | 1520.0 µmol | 2.49 s | 0.35 micromol/10^6 cells/min | 
[2H]C([2H])C(O)C(=O)O (stereo not drawn) [Lactate-CHD2] | 353.07 µmol/L | 706.14 µmol | 2442.47 µmol/L | 4884.9 µmol | 4.21 s | 0.57 micromol/10^6 cells/min | concentration of lactate-CHD2 relative to the -CH2D isotopomer ([4]; 5 hour time point): 1.6 fold
CC(O)C(=O)O (stereo not drawn) [lactate-CH3] |  |  |  |  | 1.85 s | 0.17 micromol/10^6 cells/min | 
c1cnccn1 [pyrazine, Pyrazine, reference compound] |  |  |  |  | 6.45 s |  | 
[2H]c1nc([2H])c([2H])nc1[2H] [pyrazine-D4, Pyrazine-D4, reference compound] |  |  |  |  |  |  | deuterium T1 relaxation time [1]: 0.45 s
[1,2,3,4,5,6,6-^2H7]-D-glucose [[^2H7]glucose, reference compound] | 586.52 µmol/L | 4105.60 µmol | 3650.0 µmol/L | 25550.0 µmol |  |  | fate of the glucose bolus in brain ([2]; rat, in vivo): almost completely metabolized; time of peak delivery of [2H7]glucose into the brain ([2]; rat, in vivo): approximately 10 minutes post infusion; final blood glucose concentration ([2]; rat, 3 hours after injection of 1.95 g/kg [2H7]glucose, n=4): 7.1 ± 1.8 mM; Number of μmol of 2H in 2H-lactate & HDO ([3]; 5 hour time point, sum): 2938.52 µmol; [2H7]glucose uptake and HDO and 2H-lactate production compared to HUH-7 ([3]; qualitative): much lower; 2H atoms of [2H7]glucose incorporated into 2H-lactate and HDO ([4]; 2H mass balance at 5 hour time point): Approximately 96%; Number of μmol of 2H in 2H-lactate & HDO ([4]; 5 hour time point, sum): 24644.9 µmol; cellular [2H7]glucose uptake and HDO production rate compared to AML12 cells ([4]; qualitative, stacked 2H-NMR spectra): very high
